For test [1], the target named is T1, MIF produced by THP-1 cells (Homo sapiens, UniProt P14174).
T1 construct: a test cell may express the MIF naturally (e.g., THP-1 cells); endogenous in cells; host or cells: THP-1 cells stimulated with LPS
T1 sequence (P14174 2-115 limits assumed): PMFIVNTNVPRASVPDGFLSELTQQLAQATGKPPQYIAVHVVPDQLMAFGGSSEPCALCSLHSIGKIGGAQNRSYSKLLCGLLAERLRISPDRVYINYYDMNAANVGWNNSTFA
The experiment in a line: High throughput screening ELISA for MIF inhibitors (THP-1 supernatant / pre-conditioned media incubated with inhibitor). To be noted: absence of cells, 30 minutes at 37° C. Type of test: binding. As for the experimental part:
Alternatively, ELISA may be preferred to detect and quantify the amount of MIF in cell supernatants. ELISA is preferred for detection in high throughput screening. Briefly, 96-well plates are coated with an anti-MIF antibody or anti-tag antibody, washed, and blocked with 2% BSA. Cell supernatant is then added to the wells. Following incubation and washing, a second antibody (e.g., to MIF) is added. The second antibody may be coupled to a label or detecting reagent, such as an enzyme or to biotin. Following further incubation, a developing reagent is added and the amount of MIF determined using an ELISA plate reader. […]
In the previous experiment (FIG. 3), the ability of compound 7e to modulate antibody binding to MIF protein was analyzed in the presence of LPS-stimulated THP1 cells. […] Six hours later, the conditioned media was removed, clarified of cell debris and the amount of MIF determined to be 22 ng/ml. […] The level of detectable MIF was then determined by ELISA using the monoclonal anti-MIF antibody for detection. […]
The high throughput screening assay for MIF inhibitors is performed in a 96-well format using MIF produced by THP-1 cells and is performed as follows. […] The amount of MIF is calculated by interpolation from an MIF standard curve.
(In an ELISA, binding on a coated surface is turned into a signal by an enzyme label.)

The next test deals with serum TNF-α. The test can be described thus: Serum TNF-α after LPS challenge in mice (ELISA). Type of test: in vivo, mouse. To be noted: 20 mg/kg compound, LPS 5 mg/kg, four hours. As to the method: Ten 10-week-old (20±2 gram) female BALB/c mice (Charles River Laboratories, Kingston, N.Y.) were housed in a group of 5 per cage with free access to food and water and were acclimatized for at least one week prior to experimentation. On the day of experiment, mice were weighed and randomly distributed into group of 10 animals of equal mean body weight. Mice were injected i.p. with 200 μL of formulated compound 7e or buffer alone immediately before the i.p. injection of LPS (Escherichia coli 0111:B4, 10 mg/kg or 5 mg/kg body weight) and β-D-galactosamine (50 mg/kg body weight). […] Mouse serum Il-1β and TNF-α were measured by ELISA using a “mouse IL 1β immunoassay or mouse TNF-α immunoassay” kits (R&D System Minneapolis, Minn.) following manufacturer's direction. Serum MIF concentrations in mouse serum were quantified by a sandwich ELISA (ChemiKine MIF Kit, Chemicon, San Diego, Calif.). Samples were analyzed in duplicate, and results were averaged.
An initial control experiment was conducted to determine the base line levels of endogenous MIF in the murine model system (female Balb/c mice), and further to determine the rate and extent of increase in endogenous MIF following treatment with LPS (10 mg/kg). […] The level of MIF in serum was measured by HPLC as described above at 0, 2, 5 and 6 hours following LPS/galactosamine treatment. […]

Consider `Cn1c(=O)c([N+](=O)[O-])c(N2CCN(C(=O)c3ccco3)CC2)c2ccccc21` [compound 7e], for which, in test [1], the “MIF specific ELISA signal in pre-conditioned media” value was “rapid loss of MIF specific ELISA signal”. The “serum TNF-α level” value in the test on serum TNF-α is recorded as “reductions”.

The values are drawn from US7084141B2, “Inhibitors of macrophase migration inhibitory factor and methods for identifying the same” (Avanir Pharmaceuticals, priority 2001, dated 2006).
